Earlier results as cited in patent US20100234277A1, “COADMINISTRATION OF ALPHA-FETOPROTEIN AND A DISEASE MODIFYING ANTI-RHEUMATIC DRUG FOR TREATING INFLAMMATORY ARTHRITIC DISEASE” (priority 2006, published 2010).

Conditions: in vivo

CN(Cc1cnc2nc(N)nc(N)c2n1)c1ccc(C(=O)N[C@@H](CCC(=O)O)C(=O)O)cc1 [methotrexate, N-[4-[[(2,4-diamino-6-pteridinyl)methyl]methylamino]benzoyl]-L-glutamic acid]
individuals with rheumatoid arthritis (RA) that respond favorably to treatment: Approximately 70%
